“And” between values parts separate entries of the source, which are not always exact repeats. Equal values may be shown once. The source made the active and inactive calls.
Legend:
[1] = biological target: T1, Beta-2 adrenergic receptor (Homo sapiens, UniProt P07550); assay: beta2AR agonists driving receptor internalization, dose response, cell-based, FAP fluorogen, flow cytometry, cherry pick 1 (AID 588763); type: functional
[2] = biological target: T1, Beta-2 adrenergic receptor; assay: Dose response for HTS for Beta-2AR agonists via FAP method from Powderset1.; type: functional
[3] = biological target: Tyrosine-protein phosphatase non-receptor type 5 (Homo sapiens, UniProt P54829); assay: STEP phosphatase inhibitors, confirmation, biochemical, fluorescence intensity, uHTS hits (AID 602372); type: functional; conditions: read-out: IC50_Mean
Chain of Tyrosine-protein phosphatase non-receptor type 5 (P54829 whole entry): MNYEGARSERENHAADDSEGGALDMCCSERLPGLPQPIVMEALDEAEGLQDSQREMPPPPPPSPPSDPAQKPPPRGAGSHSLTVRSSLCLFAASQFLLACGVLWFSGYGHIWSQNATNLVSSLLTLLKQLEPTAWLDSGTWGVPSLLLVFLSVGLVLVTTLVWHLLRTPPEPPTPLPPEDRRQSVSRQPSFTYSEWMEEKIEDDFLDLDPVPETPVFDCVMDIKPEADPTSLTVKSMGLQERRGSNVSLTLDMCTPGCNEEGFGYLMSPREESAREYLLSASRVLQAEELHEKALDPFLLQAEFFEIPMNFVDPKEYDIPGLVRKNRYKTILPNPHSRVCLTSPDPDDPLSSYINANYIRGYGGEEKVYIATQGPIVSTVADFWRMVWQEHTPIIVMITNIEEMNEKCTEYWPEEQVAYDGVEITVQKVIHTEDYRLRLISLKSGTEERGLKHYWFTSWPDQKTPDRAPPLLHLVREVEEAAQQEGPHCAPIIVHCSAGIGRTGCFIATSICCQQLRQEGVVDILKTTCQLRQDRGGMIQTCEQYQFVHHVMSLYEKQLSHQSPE

[4] = biological target: T2, Dual specificity protein phosphatase 6 (Rattus norvegicus, UniProt Q64346); assay: MKP-3 phosphatase inhibitors, primary screen, biochemical, rat enzyme, in vitro (AID 425)
T2 sequence (Q64346 whole entry): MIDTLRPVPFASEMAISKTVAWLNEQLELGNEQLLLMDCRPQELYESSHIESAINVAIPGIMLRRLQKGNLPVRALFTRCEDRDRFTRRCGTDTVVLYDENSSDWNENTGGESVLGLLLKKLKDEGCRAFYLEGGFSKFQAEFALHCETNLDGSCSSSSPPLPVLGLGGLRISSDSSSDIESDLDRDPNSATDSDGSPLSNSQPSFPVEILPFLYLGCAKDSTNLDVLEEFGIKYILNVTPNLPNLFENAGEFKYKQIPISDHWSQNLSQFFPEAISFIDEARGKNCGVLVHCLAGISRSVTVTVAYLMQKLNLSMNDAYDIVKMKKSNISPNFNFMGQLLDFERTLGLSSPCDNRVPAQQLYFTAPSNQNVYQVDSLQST

[5] = biological target: T3, Dual specificity protein phosphatase 3 (Homo sapiens, UniProt P51452); assay: VHR phosphatase inhibition, dose response, selectivity assay for STEP inhibitor project, biochemical (AID 602374); type: functional; conditions: read-out: IC50_Mean
T3 sequence (P51452 whole entry): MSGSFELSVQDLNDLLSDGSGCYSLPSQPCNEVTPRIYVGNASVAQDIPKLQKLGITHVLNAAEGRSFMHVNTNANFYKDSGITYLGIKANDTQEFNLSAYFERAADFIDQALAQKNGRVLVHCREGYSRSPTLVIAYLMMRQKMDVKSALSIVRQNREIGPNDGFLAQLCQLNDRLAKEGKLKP

[6] = biological target: T4, Small ubiquitin-related modifier 1 (Homo sapiens, UniProt P63165); assay: inhibitors of SUMO1 peptide binding, dose response, biochemical, fluorescence polarization, uHTS hits (AID 624382); type: functional; conditions: read-out: IC50_Mean
T4 sequence (P63165 whole entry): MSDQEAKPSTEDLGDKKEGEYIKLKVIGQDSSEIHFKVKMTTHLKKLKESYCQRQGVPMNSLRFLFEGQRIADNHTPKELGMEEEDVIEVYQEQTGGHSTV

[7] = biological target: T5, Tyrosine-protein phosphatase non-receptor type 22 (Homo sapiens, UniProt Q9Y2R2); assay: PTPN22 phosphatase inhibition, dose response, selectivity assay for STEP inhibitor project, biochemical (AID 624241); type: functional
T5 sequence (Q9Y2R2 whole entry): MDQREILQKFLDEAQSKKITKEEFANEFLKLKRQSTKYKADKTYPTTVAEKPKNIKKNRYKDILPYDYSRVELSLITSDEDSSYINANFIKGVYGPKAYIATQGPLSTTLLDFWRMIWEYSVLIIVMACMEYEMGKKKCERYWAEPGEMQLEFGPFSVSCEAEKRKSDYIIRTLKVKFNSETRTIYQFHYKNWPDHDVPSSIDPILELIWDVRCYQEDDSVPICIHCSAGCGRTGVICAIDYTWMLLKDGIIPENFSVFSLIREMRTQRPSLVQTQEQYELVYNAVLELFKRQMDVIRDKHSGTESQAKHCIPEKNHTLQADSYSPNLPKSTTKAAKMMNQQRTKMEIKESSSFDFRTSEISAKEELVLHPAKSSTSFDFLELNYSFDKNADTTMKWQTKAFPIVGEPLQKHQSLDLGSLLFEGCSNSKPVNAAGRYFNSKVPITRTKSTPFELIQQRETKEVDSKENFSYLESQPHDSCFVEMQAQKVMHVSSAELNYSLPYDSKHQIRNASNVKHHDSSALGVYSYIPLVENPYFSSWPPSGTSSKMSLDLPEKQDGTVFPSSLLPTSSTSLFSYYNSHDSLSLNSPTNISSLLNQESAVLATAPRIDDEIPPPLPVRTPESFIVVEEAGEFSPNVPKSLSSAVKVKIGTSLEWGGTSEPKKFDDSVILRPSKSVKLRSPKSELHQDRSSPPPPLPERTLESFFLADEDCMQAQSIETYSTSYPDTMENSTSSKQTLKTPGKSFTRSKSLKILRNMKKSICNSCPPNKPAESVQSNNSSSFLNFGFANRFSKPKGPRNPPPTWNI

[8] = biological target: T4, Small ubiquitin-related modifier 1; assay: inhibitors of SUMO1 partner interactions, dose response, biochemical, FRET (AID 624383); type: functional; conditions: read-out: IC50_Mean
[9] = biological target: T6, Low molecular weight phosphotyrosine protein phosphatase (Homo sapiens, UniProt P24666); type: functional; conditions: read-out: IC50_Mean
T6 sequence (P24666 whole entry): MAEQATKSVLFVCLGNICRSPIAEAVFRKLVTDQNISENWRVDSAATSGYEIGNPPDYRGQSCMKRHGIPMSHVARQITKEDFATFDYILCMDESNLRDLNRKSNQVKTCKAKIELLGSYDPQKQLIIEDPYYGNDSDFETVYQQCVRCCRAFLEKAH

[10] = biological target: Tyrosine-protein phosphatase non-receptor type 11 (Homo sapiens, UniProt Q06124); assay: SHP2 phosphatase inhibition, dose response, selectivity assay for STEP inhibitor project, biochemical (AID 602367); type: functional; conditions: read-out: IC50_Mean
Chain of Tyrosine-protein phosphatase non-receptor type 11 (Q06124 whole entry): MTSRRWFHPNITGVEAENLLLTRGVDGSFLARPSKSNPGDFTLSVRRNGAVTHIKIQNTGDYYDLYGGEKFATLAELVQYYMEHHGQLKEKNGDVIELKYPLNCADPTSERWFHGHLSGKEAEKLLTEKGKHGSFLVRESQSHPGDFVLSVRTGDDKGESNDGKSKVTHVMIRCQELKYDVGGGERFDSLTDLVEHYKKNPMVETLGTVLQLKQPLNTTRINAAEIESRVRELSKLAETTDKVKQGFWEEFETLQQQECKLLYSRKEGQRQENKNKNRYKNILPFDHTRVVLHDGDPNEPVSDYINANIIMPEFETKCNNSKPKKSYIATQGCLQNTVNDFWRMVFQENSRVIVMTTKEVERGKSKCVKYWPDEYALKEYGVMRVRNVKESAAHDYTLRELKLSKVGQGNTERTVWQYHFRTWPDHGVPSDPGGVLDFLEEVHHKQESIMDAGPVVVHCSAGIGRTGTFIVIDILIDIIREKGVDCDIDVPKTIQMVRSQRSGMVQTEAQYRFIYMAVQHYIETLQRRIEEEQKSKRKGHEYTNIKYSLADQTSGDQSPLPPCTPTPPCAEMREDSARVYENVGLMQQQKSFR

Caspase-6 = biological target: T7, Caspase-6 (Homo sapiens, UniProt P55212); assay: human caspase-6 inhibitors, dose response, biochemical, VEID-R110 fluorescence, cherry-pick (AID 720632)
T7 sequence (P55212 whole entry): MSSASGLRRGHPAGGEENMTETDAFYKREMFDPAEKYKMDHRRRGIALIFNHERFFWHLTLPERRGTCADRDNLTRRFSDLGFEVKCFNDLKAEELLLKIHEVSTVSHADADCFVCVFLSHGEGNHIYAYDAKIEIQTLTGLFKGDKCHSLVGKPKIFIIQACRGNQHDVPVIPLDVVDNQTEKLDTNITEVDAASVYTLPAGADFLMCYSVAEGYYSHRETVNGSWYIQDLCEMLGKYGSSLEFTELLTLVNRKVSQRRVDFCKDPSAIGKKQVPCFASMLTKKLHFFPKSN

Genome polyprotein = Genome polyprotein (dengue virus type 2, UniProt P29990); assay: Dengue-2 NS5 methyltransferase inhibitors, primary screen, biochemical, confirmation dose response (AID 588689); type: functional
Chain of Genome polyprotein (P29990 2492-3391 limits assumed): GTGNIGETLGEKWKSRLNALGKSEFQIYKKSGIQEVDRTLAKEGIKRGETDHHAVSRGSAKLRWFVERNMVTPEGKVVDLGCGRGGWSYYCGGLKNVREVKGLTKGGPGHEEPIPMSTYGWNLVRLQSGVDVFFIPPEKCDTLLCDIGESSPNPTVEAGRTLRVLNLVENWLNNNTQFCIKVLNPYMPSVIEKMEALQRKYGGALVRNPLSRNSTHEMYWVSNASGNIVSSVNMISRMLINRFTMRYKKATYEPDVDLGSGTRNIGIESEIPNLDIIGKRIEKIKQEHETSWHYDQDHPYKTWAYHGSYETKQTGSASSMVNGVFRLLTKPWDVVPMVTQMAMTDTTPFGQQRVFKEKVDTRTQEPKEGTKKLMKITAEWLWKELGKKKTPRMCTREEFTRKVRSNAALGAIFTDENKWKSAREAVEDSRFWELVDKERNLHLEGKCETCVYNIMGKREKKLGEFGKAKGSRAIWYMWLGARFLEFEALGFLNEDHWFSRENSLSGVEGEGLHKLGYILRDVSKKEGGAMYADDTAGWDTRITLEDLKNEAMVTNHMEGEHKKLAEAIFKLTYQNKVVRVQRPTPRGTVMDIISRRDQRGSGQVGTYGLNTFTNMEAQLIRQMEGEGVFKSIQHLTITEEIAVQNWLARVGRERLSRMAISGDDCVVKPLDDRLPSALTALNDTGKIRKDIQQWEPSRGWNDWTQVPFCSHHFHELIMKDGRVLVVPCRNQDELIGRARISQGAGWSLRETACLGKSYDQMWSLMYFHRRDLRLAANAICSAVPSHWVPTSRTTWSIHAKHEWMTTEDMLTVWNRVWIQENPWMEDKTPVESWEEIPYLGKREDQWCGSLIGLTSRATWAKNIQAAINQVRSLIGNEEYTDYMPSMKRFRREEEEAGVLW

[11] = biological target: T6, Low molecular weight phosphotyrosine protein phosphatase; type: functional; conditions: read-out: IC50_Mean; remark: listed apart in the source
[12] = biological target: T3, Dual specificity protein phosphatase 3; assay: VHR1 phosphatase inhibitors, biochemical (AID 1878)
[13] = biological target: T3, Dual specificity protein phosphatase 3; assay: VHR1 phosphatase inhibitors, primary screen, biochemical, absorbance, uHTS (AID 1654)
[14] = biological target: T8, Carboxy-terminal domain RNA polymerase II polypeptide A small phosphatase 1 (Homo sapiens, UniProt Q9GZU7); assay: inhibitors of CTDSP1, concentration-response testing, biochemical assay, absorbance-based, actives from ultra-high-throughput screening (AID 540297); type: functional
T8 sequence (Q9GZU7 whole entry): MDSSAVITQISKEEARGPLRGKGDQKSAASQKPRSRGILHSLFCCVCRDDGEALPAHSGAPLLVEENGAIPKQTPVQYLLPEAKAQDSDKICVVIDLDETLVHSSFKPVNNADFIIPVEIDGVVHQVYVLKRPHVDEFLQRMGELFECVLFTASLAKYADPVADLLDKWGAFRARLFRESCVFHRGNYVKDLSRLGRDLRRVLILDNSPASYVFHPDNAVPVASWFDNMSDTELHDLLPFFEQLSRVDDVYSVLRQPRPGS

Beta-lactamase [15] = biological target: T9, Beta-lactamase (Pseudomonas aeruginosa, UniProt Q79MP6); assay: IMP-1 metallo-beta-lactamase inhibitors, dose response, selectivity assay for VIM-2 inhibitor project, biochemical, epi-absorbance (AID 1920)
T9 sequence (Q79MP6 whole entry): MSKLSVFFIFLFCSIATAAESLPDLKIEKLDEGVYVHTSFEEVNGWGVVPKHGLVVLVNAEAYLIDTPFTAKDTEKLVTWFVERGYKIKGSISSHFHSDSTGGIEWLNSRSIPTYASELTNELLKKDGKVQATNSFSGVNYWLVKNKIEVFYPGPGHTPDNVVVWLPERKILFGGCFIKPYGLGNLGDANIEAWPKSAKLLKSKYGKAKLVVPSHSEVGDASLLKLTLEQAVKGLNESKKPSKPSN

Beta-lactamase [16] = biological target: T9, Beta-lactamase; assay: […] counterscreen for selective VIM-2 inhibitors: dose response biochemical high throughput screening assay to identify inhibitors of IMP-1 metallo-beta-lactamase.
Beta-lactamase [17] = biological target: Beta-lactamase (Salmonella choleraesuis (strain SC-B67), UniProt Q5J463); assay: Epi-absorbance-based counterscreen for selective VIM-2 inhibitors: dose response biochemical high throughput screening assay to identify inhibitors of TEM-1 serine-beta-lactamase.
Chain of Beta-lactamase (Salmonella choleraesuis (strain SC-B67), UniProt Q5J463) (Q5J463 whole entry): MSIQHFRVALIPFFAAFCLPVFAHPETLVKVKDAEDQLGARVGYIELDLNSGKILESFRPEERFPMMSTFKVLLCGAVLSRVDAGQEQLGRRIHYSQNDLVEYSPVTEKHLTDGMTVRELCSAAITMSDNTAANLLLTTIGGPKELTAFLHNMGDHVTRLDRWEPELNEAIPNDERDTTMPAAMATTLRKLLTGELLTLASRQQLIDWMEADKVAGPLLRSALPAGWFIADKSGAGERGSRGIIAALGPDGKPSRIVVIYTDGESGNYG

T1 sequence (P07550 whole entry): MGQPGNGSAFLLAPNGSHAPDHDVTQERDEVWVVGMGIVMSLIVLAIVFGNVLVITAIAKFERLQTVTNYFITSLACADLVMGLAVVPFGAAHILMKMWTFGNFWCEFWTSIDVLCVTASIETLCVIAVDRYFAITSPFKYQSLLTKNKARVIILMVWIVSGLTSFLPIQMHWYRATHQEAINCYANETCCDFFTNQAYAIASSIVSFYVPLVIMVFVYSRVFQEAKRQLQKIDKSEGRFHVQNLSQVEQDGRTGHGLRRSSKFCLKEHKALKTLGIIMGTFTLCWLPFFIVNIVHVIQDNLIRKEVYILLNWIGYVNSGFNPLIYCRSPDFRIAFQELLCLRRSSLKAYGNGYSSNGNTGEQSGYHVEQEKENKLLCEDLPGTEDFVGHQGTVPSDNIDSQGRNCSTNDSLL

## Cc1ccc(OCC(=O)Nc2ccc(-c3nc4ncccc4o3)cc2)c(C)c1
[1]
  EC50: 316 nM (active) and 92.7 nM (active)
[2]
  EC50: 0.503 µM (active)

## Cc1c(CCC(=O)O)c(=O)oc2c(C)c(OCc3cc4c(cc3Cl)OCO4)ccc12
[3]
  IC50: 3.97 µM (active)
[4]
  IC50: 78.7 µM (active)
[5]
  IC50: 1.67 µM (active)
[6]
  IC50: > 66.6 µM (inactive)
[7]
  IC50: 9 µM (active)
[8]
  IC50: 10.3 µM (active)
[9]
  IC50: 8.04 µM (active)
[10]
  IC50: 1.51 µM (active)
Caspase-6
  AC50: 7.15 µM (active)
Genome polyprotein
  IC50: 51.7 µM (active)
[11]
  IC50: 24.9 µM (inactive)
[12]
  IC50: 2.99 µM (active)
[13]
  IC50: 17.4 µM (active)
[14]
  IC50: 3.17 µM (active)

## CCCCn1c(-c2ccoc2C)n[nH]c1=S
Beta-lactamase [15]
  IC50: > 59.6 µM (inactive)
Beta-lactamase [16]
  IC50: > 59.6 µM (inactive)
Beta-lactamase [17]
  IC50: > 59.6 µM (inactive)

— ChEMBL document CHEMBL1201862, “PubChem BioAssay data set” (2004)
